Assay type in all cases: cell-based, human
In assay [1] the test system is plasminogen. Nature of the assay: Plasminogen level in hESC conditioned media by ELISA. The following applies: heparin 100 ug/mL; control siRNA, ANXA2 siRNA, non-PE and sPE decidualized hESCs (all conditions). How it is done: Plasminogen level was evaluated in conditioned media by ELISA kit (Cell Biolabs, CA, USA) following manufacturer's instructions. Average absorbance (Δ450 nm) in duplicate wells was calculated by subtracting the background from wells with media without hESC.
(§1) hESCs were cultured on monolayer in presence of 50 μg/mL and 100 μg/mL of heparin (Sigma, Madrid, during 15, 30 and 60 min to elaborate a dose-response experiment. Conditioned media from hESC cells were collected to analyze plasminogen levels, plasmin activity and metalloproteases production.

Assay [2] deals with plasmin. Nature of the assay: Plasmin activity in hESC conditioned media, fluorimetric assay. The following applies: heparin 100 ug/mL. How it is done:
Plasmin activity was measured in conditioned media by fluorimetric assay kit (Anaspec, CA, USA). It is based in a protease cleavage to plasmin substrate that generates a rhodamine 110 fluorophore which has a bright green fluorescence detected at 496 nm/520 nm (excitation/emission). Fifty microlitres of conditioned media was pre-incubated 10 min at room temperature and 50 uL of plasmin substrate solution was added into each well. Fluorescence signal was obtain for kinetic reading immediately start measuring and record data every 5 min for 60 min, with a total of 13 lectures. Each condition was evaluated in duplicate. The fluorescence was Interpol to concentration values using an Rh110 fluorescence reference standard.
as §1

Assay [3] deals with MMP2. The assay can be described thus: MMP2 level in hESC conditioned media by ELISA. The following applies: heparin treatment, all hESC conditions. How it is done:
(§2) MMP2 and MMP9 pro and active protein forms were evaluated by commercial ELISA analysis (RayBiotech, GA, USA). These assays employ an antibody specific for humans MMP-2 and MMP-9 coated on a 96-well plate. Standards and samples are pipette by duplicated into the wells and MMP-2 and MMP-9 present in a sample is bound to the wells by the immobilized antibody. Biotinylated anti-human MMP-2 and MMP-9 and HRP-conjugated streptavidin were added. TMB substrate solutions were added and absorbance at 450 nm was extrapolated to standard curve.
as §1

Assay [4] relates to MMP9. The assay can be described thus: MMP9 level in hESC conditioned media by ELISA. The following applies: heparin treatment, all hESC conditions. How it is done: as §2, §1
In assay [5] the test system is ANXA2. The assay can be described thus: Secreted extracellular ANXA2 in hESC conditioned media by ELISA. The settings on record: heparin treatment; control, ANXA2 siRNA and sPE hESCs. The method, then:
Protein extracts (2 μg/well) and conditioned media were analyzed by ELISA (R&D Systems, MN, USA). Inmobilized capture antibody specifically binds Annexin A2. After washing away un-bounded material, a biotinylated detection antibody specific for Annexin A2 is used to detect the bound Annexin A2, using a standard Streptavidin-HRP format. Three replicates were performed for each condition and the absorbance values were extrapolated to standard curve to establish human Annexin A2 concentration (pg/mL).
as §1

Regarding heparin, the “Plasminogen secretion into the conditioned media” value in assay [1] is “significantly increased”. Further, the Plasmin activity entry in assay [2] (ANXA2 siRNA hESCs and hESCs from sPE) is listed as “significant increase”. Further, in assay [2] (control siRNA, ANXA2 siRNA, non-PE and sPE decidualized hESCs (all conditions)), the “Plasmin activity in conditioned media” value is recorded as “significantly increased”. Also, the MMP2 production entry in assay [3] is “significant increase”. For the same substance, in assay [4], the MMP9 production result was “significant increase”. Moreover, the “ANXA2 protein secreted to the culture media” value in assay [5] is reported as “significant increase”.

The values above are taken from US20170097358A1, “EARLY DETECTION OF PREECLAMPSIA” (Igenomix S.L., priority 2014, published 2017).
